Reference: US20060177374A1, “Treatment of cancer with active vitamin D compounds in combination with radiotherapeutic agents and treatments” (Novacea, Inc., priority 2003, published 2006)

Legend:
[1] = in vivo; cited from earlier work
[2] = Solubility study of calcitriol in each formulation (light microscope); format: physicochemical; settings: heated to 50° C., cooled to room temperature, highest concentration tested
Procedure: To further assess the formulations of calcitriol, a solubility study was conducted to evaluate the amount of calcitriol soluble in each formulation. Calcitriol concentrations from 0.1 to 0.6 μg calcitriol/mg formulation were prepared by heating the formulations to 50° C. followed by addition of the appropriate mass of calcitriol. The formulations were then allowed to cool to room temperature and the presence of undissolved calcitriol was determined by a light microscope with and without polarizing light. For each formulation, calcitriol was soluble at the highest concentration tested, 0.6 μg calcitriol/mg formulation.

| Compound | Hypercalcemic effect compared to calcitriol [1] | Calcitriol soluble in formulation [2] |
| --- | --- | --- |
| C=C1/C(=C\C=C2/CCC[C@]3(C)C([C@H](C)CC#CC(C)(C)O)=CC[C@@H]23)C[C@@H](O)C[C@@H]1O [Ro23-7553] | reduced hypercalcemic effect |  |
| C=C1/C(=C\C=C2/CCC[C@]3(C)[C@@H]([C@H](C)CCCC(C)(C)O)CC[C@@H]23)C[C@@H](O)C[C@@H]1O [calcitriol, 1α,25-dihydroxyvitamin D3] |  | ≥ 0.6 μg calcitriol/mg formulation |
